Patent US12466804B2 (BRISTOL-MYERS SQUIBB COMPANY, priority 2019, dated 2025)
Like-named read-outs stand apart in the source and are kept apart here.

Target: T1, human LPA1 (Homo sapiens, UniProt Q92633)
T1 construct: expressed in transfected cells; host or cells: Chinese hamster ovary (CHO) cells
Experiment: LPA1 functional antagonist assay (LPA-induced calcium flux)
Format: cell-based
Experimental: The effectiveness of compounds of the present invention as LPA1 inhibitors can be determined in an LPA1 functional antagonist assay as follows:
The cells were then equilibrated to room temperature for 30 minutes before the assay. […] IC50 values were determined by fitting data to a 4-parameter logistic equation (GraphPad Prism, San Diego CA).

[1] = CHO cells overexpressing human LPA1, calcium flux induced by 10 nM LPA, read-out: hLPA1 IC50

T1 sequence (Q92633 whole entry): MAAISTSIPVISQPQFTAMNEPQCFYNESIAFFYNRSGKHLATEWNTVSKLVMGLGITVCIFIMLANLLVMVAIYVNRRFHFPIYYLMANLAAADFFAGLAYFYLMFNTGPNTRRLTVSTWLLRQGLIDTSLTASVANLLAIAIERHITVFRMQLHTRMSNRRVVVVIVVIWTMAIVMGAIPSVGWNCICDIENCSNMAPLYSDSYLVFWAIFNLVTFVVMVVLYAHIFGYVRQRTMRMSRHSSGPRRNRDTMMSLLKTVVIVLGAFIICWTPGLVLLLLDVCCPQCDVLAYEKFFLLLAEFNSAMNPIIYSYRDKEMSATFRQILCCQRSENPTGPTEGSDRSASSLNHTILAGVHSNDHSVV

Row | SMILES | IC50 [1] [nM] | IC50 [nM]
1 | CCCCOC(=O)NCc1c(-c2ccc(OC[C@@H]3CC[C@H]3C(=O)O)c(C)n2)nnn1C (racemic) [Example 42, (±)-(1R,2R)-2-(((6-(5-(((butoxy-carbonyl)amino)methyl)-1-methyl-1H-1,2,3-triazol-4-yl)-2-methyl-pyridin-3-yl)oxy)methyl)cyclobutanecarboxylic acid] | 649 | –
2 | CC[C@H](C)COC(=O)NCc1c(-c2ccc(OC[C@@H]3CC[C@H]3C(=O)O)c(C)n2)nnn1C (racemic) [Example 43, (±)-(1R,2R)-2-(((2-methyl-6-(1-methyl-5-(((((S)-2-methyl-butoxy)carbonyl)amino)methyl)-1H-1,2,3-triazol-4-yl)pyridin-3-yl)oxy)methyl)cyclobutane carboxylic acid] | 47 | –
3 | Cc1nc(-c2nnn(C)c2CNC(=O)OCC(C)CC(F)(F)F)ccc1OC[C@@H]1CC[C@H]1C(=O)O (mixture of isomers) [Example 44, (±)-(1R,2R)-2-(((2-methyl-6-(1-methyl-5-((((4,4,4-trifluoro-2-methylbutoxy)carbonyl)amino)methyl)-1H-1,2,3-triazol-4-yl)pyridin-3-yl)oxy)methyl)cyclobutane carboxylic acid] | 103 | –
4 | Cc1nc(-c2nnn(C)c2COC(=O)NC2CCCCC2)ccc1OC[C@@H]1CC[C@H]1C(=O)O (racemic) [Example 45, (±)-(1R,2R)-2-(((6-(5-(((cyclohexylcarbamoyl)oxy)methyl)-1-methyl-1H-1,2,3-triazol-4-yl)-2-methyl-pyridin-3-yl)oxy)methyl)cyclobutane-1-carboxylic acid] | 435 | –
5 | CCCN(C)C(=O)OCc1c(-c2ccc(OC[C@@H]3CC[C@H]3C(=O)O)c(C)n2)nnn1C (racemic) [Example 46] | 275 | –
6 | CCC(C)Cc1nc(NCc2c(-c3ccc(OCC45CC(C(=O)O)(C4)C5)c(C)n3)nnn2C)no1 (racemic) [Example 56, (±)-3-(((2-methyl-6-(1-methyl-5-(((5-(2-methylbutyl)-1,2,4-oxadiazol-3-yl)amino)methyl)-1H-1,2,3-triazol-4-yl)pyridin-3-yl)oxy)methyl)bicyclo[1.1.1]pentane-1-carboxylic acid] | 586 | –
7 | Cc1nc(-c2nnn(C)c2NC(=O)OCC2CC2)ccc1OC[C@H]1CC[C@@H]1C(=O)O (racemic) [Example 59, (±)-(1S,2S)-2-(((6-(5-(((cyclopropyl-methoxy)carbonyl)amino)-1-methyl-1H-1,2,3-triazol-4-yl)-2-methyl-pyridin-3-yl)oxy)methyl)cyclobutane-1-carboxylic acid] | 3590 | –
8 | Cc1nc(-c2nnn(C)c2CNc2noc(CC3CC3)n2)ccc1OC[C@H]1CC[C@@H]1C(=O)O (racemic) [Example 60, (±)-(1S,2S)-2-(((6-(5-(((5-(Cyclopropylmethyl)-1,2,4-oxadiazol-3-yl)amino)methyl)-1-methyl-1H-1,2,3-triazol-4-yl)-2-methylpyridin-3-yl)oxy)methyl) cyclobutane-1-carboxylic acid] | 1160 | –
9 | Cc1nc(-c2nnn(C)c2CNc2nccc(C(C)C)n2)ccc1OC[C@@H]1CC[C@H]1C(=O)O (single isomer, unassigned) [Example 24] | 1150 | –
10 | Cc1nc(-c2nnn(C)c2Cn2nnc(CC3CC3)n2)ccc1OC[C@H]1CC[C@@H]1C(=O)O (single isomer, unassigned) [Example 39] | 250 | –
11 | Cc1nc(-c2nnn(C)c2COC(=O)N(C)CC2CCC2)ccc1O[C@H]1C[C@H](C(=O)O)C1 [Example 9, trans-3-((6-(5-((((cyclobutylmethyl)(methyl)carbamoyl)oxy)methyl)-1-methyl-1H-1,2,3-triazol-4-yl)-2-methylpyridin-3-yl)oxy)cyclobutane-1-carboxylic acid] | 278 | –
12 | Cc1nc(-c2nnn(C)c2COC(=O)N(C)CC2CCC2)ccc1O[C@H]1C[C@@H](C(=O)O)C1 [Example 10, cis-3-((6-(5-((((cyclobutylmethyl)(methyl)carbamoyl)oxy)methyl)-1-methyl-1H-1,2,3-triazol-4-yl)-2-methylpyridin-3-yl)oxy)cyclobutane-1-carboxylic acid] | 789 | –
13 | Cc1noc(-c2ccc(OCC3CC(C(=O)O)C3)cc2)c1COC(=O)N(C)C1CCCC1 (stereo not drawn) [Example 30, 3-((4-(4-(((Cyclopentyl(methyl)carbamoyl)oxy)methyl)-3-methylisoxazol-5-yl)phenoxy)methyl)cyclobutanecarboxylic acid] | 316 | –
14 | CN(C(=O)OCc1c(-c2ccc(OCC34CC(C(=O)O)(C3)C4)cn2)nnn1C)C1CCCC1 [Example 51, 3-(((6-(5-(((cyclopentyl(methyl)carbamoyl)oxy)methyl)-1-methyl-1H-1,2,3-triazol-4-yl)pyridin-3-yl)oxy)methyl)bicyclo[1.1.1]pentane-1-carboxylic acid] | 417 | –
15 | Cc1nc(-c2nnn(C)c2COC(=O)N(C)CC2CCC2)ccc1OCC12CC(C(=O)O)(C1)C2 [Example 52, 3-(((6-(5-((((cyclobutylmethyl)(methyl)carbamoyl)oxy)methyl)-1-methyl-1H-1,2,3-triazol-4-yl)-2-methylpyridin-3-yl)oxy)methyl)bicyclo[1.1.1]pentane-1-carboxylic acid] | 372 | –
16 | Cc1noc(-c2ccc(OCC34CC(C(=O)O)(C3)C4)cc2)c1COC(=O)N(C)C1CCCC1 [Example 53, 3-((4-(4-(((cyclopentyl(methyl)carbamoyl)oxy)methyl)-3-methylisoxazol-5-yl)phenoxy)methyl)bicyclo[1.1.1]pentane-1-carboxylic acid] | 604 | –
17 | CN(CC1CCC1)C(=O)OCc1c(-c2ccc(OCC34CC(C(=O)O)(C3)C4)cn2)nnn1C [Example 54, 3-(((6-(5-((((cyclobutylmethyl)(methyl)carbamoyl)oxy)methyl)-1-methyl-1H-1,2,3-triazol-4-yl)pyridin-3-yl)oxy)methyl)bicyclo[1.1.1]pentane-1-carboxylic acid] | – | 427
18 | Cc1nc(-c2nnn(C)c2CNc2noc(CCC(C)C)n2)ccc1OCC12CC(C(=O)O)(C1)C2 [Example 55, 3-(((6-(5-(((5-isopentyl-1,2,4-oxadiazol-3-yl)amino)methyl)-1-methyl-1H-1,2,3-triazol-4-yl)-2-methylpyridin-3-yl)oxy)methyl)bicyclo[1.1.1]pentane-1-carboxylic acid] | 1980 | –

The next lines start with results.

Row | IC50 [1] [nM] | SMILES | IC50 [nM]
19 | 23 | Cc1nc(-c2nnn(C)c2COC(=O)N(C)C2CCCC2)ccc1OC[C@@H]1CC[C@H]1C(=O)O (racemic) [Example 47, (±)-(1R,2R)-2-(((6-(5-(((cyclopentyl(methyl)carbamoyl)oxy)methyl)-1-methyl-1H-1,2,3-triazol-4-yl)-2-methyl-pyridin-3-yl)oxy)methyl)cyclobutane carboxylic acid] | –
20 | 72 | Cc1nc(-c2nnn(C)c2COC(=O)N(C)C2CCC2)ccc1OC[C@@H]1CC[C@H]1C(=O)O (racemic) [Example 48, (±)-(1R,2R)-2-(((6-(5-(((cyclobutyl(methyl)carbamoyl)oxy)methyl)-1-methyl-1H-1,2,3-triazol-4-yl)-2-methylpyridin-3-yl)oxy)methyl)cyclobutanecarboxylic acid] | –
21 | 232 | Cc1nc(-c2nnn(C)c2COC(=O)N(C)CC(C)C)ccc1OC[C@@H]1CC[C@H]1C(=O)O (racemic) [Example 49, (±)-(1R,2R)-2-(((6-(5-(((isobutyl(methyl)carbamoyl)oxy)methyl)-1-methyl-1H-1,2,3-triazol-4-yl)-2-methylpyridin-3-yl)oxy)methyl)cyclobutanecarboxylic acid] | –
22 | 22 | CCCCN(C)C(=O)OCc1c(-c2ccc(OC[C@@H]3CC[C@H]3C(=O)O)c(C)n2)nnn1C (racemic) [Example 50, (±)-(1R,2R)-2-(((6-(5-(((butyl(methyl)carbamoyl)oxy)methyl)-1-methyl-1H-1,2,3-triazol-4-yl)-2-methylpyridin-3-yl)oxy)methyl)cyclobutanecarboxylic acid] | –
23 | 7 | Cc1noc(-c2ccc(OC[C@@H]3CC[C@H]3C(=O)O)cn2)c1CNc1nccc(-c2ccccn2)n1 (single isomer, unassigned) [Example 3] | –
24 | 14 | Cc1noc(-c2ccc(OC[C@H]3CC[C@@H]3C(=O)O)cn2)c1CNc1nccc(-c2ccccn2)n1 (single isomer, unassigned) [Example 4] | –
25 | 26 | Cc1nc(-c2nnn(C)c2COC(=O)N(C)CC2CCC2)ccc1OC[C@@H]1CC[C@H]1C(=O)O (single isomer, unassigned) [Example 7] | –
26 | 6 | Cc1nc(-c2nnn(C)c2COC(=O)N(C)CC2CCC2)ccc1OC[C@H]1CC[C@@H]1C(=O)O (single isomer, unassigned) [Example 8] | –
27 | 77 | CCc1cc(OCc2c(-c3ccc(OC[C@@H]4CC[C@H]4C(=O)O)c(C)n3)nnn2C)ncn1 (single isomer, unassigned) [Example 12] | –
28 | 28 | CCc1cc(OCc2c(-c3ccc(OC[C@H]4CC[C@@H]4C(=O)O)c(C)n3)nnn2C)ncn1 (single isomer, unassigned) [Example 13] | –
29 | 51 | Cc1nc(-c2nnn(C)c2CNc2nccc(C(C)C)n2)ccc1OC[C@H]1CC[C@@H]1C(=O)O (single isomer, unassigned) [Example 25] | –
30 | 67 | Cn1nnc(-c2ccc(OC[C@@H]3CC[C@H]3C(=O)O)cn2)c1CNc1nccc(-c2ccccn2)n1 (single isomer, unassigned) [Example 28] | –
31 | 186 | Cn1nnc(-c2ccc(OC[C@H]3CC[C@@H]3C(=O)O)cn2)c1CNc1nccc(-c2ccccn2)n1 (single isomer, unassigned) [Example 29] | –
32 | 63 | Cc1nc(-c2nnn(C)c2Cn2nnc(CC3CC3)n2)ccc1OC[C@@H]1CC[C@H]1C(=O)O (single isomer, unassigned) [Example 38] | –
33 | 82 | Cc1nc(-c2nnn(C)c2COC(=O)N(C)CC2CCC2)ccc1OCC12CCC(C(=O)O)(C1)C2 [Example 57, 4-(((6-(5-((((cyclobutylmethyl)(methyl)carbamoyl)oxy)methyl)-1-methyl-1H-1,2,3-triazol-4-yl)-2-methylpyridin-3-yl)oxy)methyl)bicyclo[2.1.1]hexane-1-carboxylic acid] | –
